Laboratory results as given in patent publication US9023795B2, “Angiogenesis-inhibiting peptide and application thereof” (Shanghai First People's Hospital, priority 2010, dated 2015).

What was measured:
[1] = tested on: pathological angiogenesis in the mouse cornea; assay: Corneal stroma micropocket model, VEGF-induced pathological angiogenesis in the mouse cornea; assay type: in vivo, C57BL/6 mice; settings: 5 days after operation, compared with VEGF group
Method: Model of the corneal stroma micropocket was used and the methods were as follows:
Male C57BL/6 mice (aged 4-5 weeks) were intraperitoneally injected with 2% pentobarbital (about 0.1 ml/PCS) for anesthesia. 4% hydrochloric oxybuprocaine ophthalmic solution was locally administrated. Under the stereo microscope, OT syringe needle and 2 ml syringe needle was used to perform a blunt dissection between the layers of corneal stroma at 0.8-1 mm from corneoscleral limbus. A pouch of about 0.6×0.8 mm was formed. Slow-release tablets (mixture of 1:1 (v/v) of 12% poly Hydroxyethyl methacrylate (polyHEMA): sucralfate) were planted respectively into the micropocket, including negative control group (blank tablet), positive control group (VEGF group: 320 ng/μl, 160 ng/tablet), and treatment group (VEGF+ZY1 small peptides of 1 μg/tablet low concentration, 5 μg/tablet moderate concentration, or 10 μg/tablet high concentration). 5 days after operation, the length of the longest new vessel (VL is the length of the longest new blood vessel grown from limbus to the cornea), and the clock hours of corneal neovascularization (CN represents the accumulative clock hours of corneal neovascularization) were observed. Neovascularization area were calculated as followed: Area (mm^2)=0.5*3.14*VL (mm)*CN*0.4 (mm). […] was used for statistical analysis.

[2] = tested on: pathological angiogenesis in the mouse retina; assay: Retinal angiogenesis in hypoxia-induced mice; assay type: in vivo, C57BL/6 mice; settings: intravitreal, eyeballs removed 5 days later, P<0.01
Method: Model of retinal angiogenesis in hypoxia-induced mice was used and the methods were as follows:
Seven days after birth, C57BL/6 mice were placed together with their breast feeding mother into an environment having a 75%±2% oxygen concentration. The mice were taken out 5 days later, and were injected intravitreally with […] ZY1 small peptides of low concentration (500 ng/μl), moderate concentration (1 μg/μl), high concentration (2 μg/μl) or control sample PBS. Mice were placed in an environment having normal air for further feeding, thereby forming the mice model of retinopathy induced by hypoxia. The eyeballs were removed 5 days later, fixed in 4% paraformaldehyde, embedded in paraffin, cut into sections, and stained with HE. The amount of the nucleus of the vascular endothelial cells in retina was counted under the optical microscope (Magnification was 200 fold). SPSS11.0.1 was used for statistical analysis.

[3] = tested on: Human Umbilical Vein Endothelial Cells (HUVECs); assay: Proliferation of primary HUVECs, MTS method; assay type: cell-based; settings: VEGF + ZY1, even at low concentration (1 μg/μl), 24 hours incubation
Method: The MTS method was used as follows:
Human Umbilical Vein Endothelial Cells (HUVECs) (purchased from ScienCell Co.) were inoculated onto a 96-well plate with an inoculation concentration of 4×10^4/ml. After cells had adhered to the wall, serum-free culture medium of ECM were added and the cells were cultivated at 37° C. for 24 hours. Then the serum-free culture medium ECM was added into each well in negative control group. VEGF (10 ng/ml) (purchased from Sigma Co.) in positive control group, VEGF (10 ng/well) ZY1 small peptide having different concentrations (1 μg/μl, 10 μg/μl, 25 μg/μl, 50 μg/μl) in treatment group were added as well. After 24 hours incubation, 20 μl MTS solution (purchased from Promega Corporation) was added in each well. After incubation at 37° C. for 4 hours, the absorbance at 490 nm for each well was measured by using Enzyme-linked Immunoassay Analysis (Bio-Rad Co.). The proliferation activity of cells was determined according to OD490. Finally, SPSS11.0.1 was used for statistical analysis.
Derived Polypeptides were prepared as follows, and the inhibition effect on proliferation of Human Umbilical Vein Endothelial Cells HUVECs was determined according to the methods in Example 6.

[4] = tested on: Human Umbilical Vein Endothelial Cells (HUVECs); assay: Migration of primary HUVECs, Wound Healing method; assay type: cell-based; settings: VEGF (10 ng/ml) + ZY1 1, 10, 25, 50 μg/μl, 6 hours
Method: The Wound Healing method was used as follows:
Primary Human Umbilical Vein Endothelial Cells (HUVECs) (purchased from ScienCell Co.) were inoculated onto a 12-well plate with an inoculation concentration of 1×10^5/ml. After cells had adhered to the wall and grown to 80%-90% of confluence, serum-free culture medium of ECM were added before cultivation at 37° C. for 24 hours. A “+” scratch was carved with the tip of a 200 μl pipettor in each well and serum-free culture medium ECM were added in negative control group. VEGF (10 ng/ml) (purchased from Sigma Co.) in positive control group, and VEGF (10 ng/ml)+ZY1 small peptide having different concentrations (1 μg/μl, 10 μg/μl, 25 μg/μl, 50 μg/μl) in treatment group were added as well. The cultivation was continued. Photos were taken for the scratches of the cells in the 12-well plate at 0 hour and 6 hour, respectively. The average width of the scratches was calculated. The migration activity was determined according to the scratch width. Finally, SPSS11.0.1 was used for statistical analysis.

[5] = tested on: Human Umbilical Vein Endothelial Cells (HUVECs); assay: Chemotaxis of primary HUVECs, Transwell Chamber method; assay type: cell-based; settings: ZY1 10, 25, 50 μg/μl in upper chamber, VEGF (50 ng/ml) in lower chamber, 24 hours
Method: The Transwell Chamber method was used as follows:
HUVECs (purchased from ScienCell Co.) were inoculated onto the upper chamber of Transwell chambers with an inoculation concentration of 6×10^5/ml. Serum-free culture medium of ECM or ZY1 small peptide having different concentrations (10 μg/μl, 25 μg/μl, 50 μg/μl) were added into individual upper chambers. VEGF (50 ng/ml) (purchased from Sigma Co.) was added/not added into the lower chamber as a chemotactic factor. After incubation at 37° C. for 24 hours, the cells on upper surface of Transwell Chamber membrane were wiped and the membrane was washed with PBS. Then the membrane was fixed in 4% paraformaldehyde solution and the lower surface of membrane was stained with hematoxylin, cut and then sections were prepared. Five fields on the chamber membrane under the optical microscope (Magnification was 400 fold) were randomly taken for photograph and the number of cells nucleus was counted. The chemotaxis was determined according to the number of cells nucleus on the lower surface of chamber membrane. Finally, SPSS11.0.1 was used for statistical analysis.

[6] = tested on: Human Umbilical Vein Endothelial Cells (HUVECs); assay: Lumen formation of primary HUVECs, Matrigel method; assay type: cell-based; settings: ZY1 at different concentrations (1, 10, 25, 50 μg/μl), VEGF 50 ng/ml, 6 hours of treatment
Method: The Matrigel method was used as follows:
A 50 μl/well Matrigel (purchased from BD Co.) was added into a 96-well plate before incubation at 37° C. for 30 min. After solidified, the primary HUVECs were inoculated onto the surface of the Matrigel with an inoculation concentration of 8×10^6/ml. Serum-free culture medium of ECM in negative control group, VEGF (50 ng/ml) (purchased from Sigma Co.) in positive control group, and ZY1 small peptide having different concentrations (1 μg/μl, 10 μg/μl, 25 μg/μl, 50 μg/μl) in treatment group were added into the wells. The incubation was continued at 37° C. Photos were taken for the 3 randomized fields of cells in the plate under the microscope (Magnification was 200 fold.) after 6 hours of treatment and the number of formed lumina was counted. Finally, SPSS11.0.1 was used for statistical analysis.

CVSLLRCTGCC GDENLHCVPV (CVSLLRCTGCCGDENLHCVPV; angiogenesis-inhibiting peptide ZY1)
inhibition of corneal angiogenesis (neovascularization area) ([1]; high concentration (10 μg/tablet) + VEGF 160 ng/tablet): significantly inhibited | inhibition of corneal angiogenesis (neovascularization area) ([1]; moderate concentration (5 μg/tablet) + VEGF 160 ng/tablet): significantly inhibited | inhibition of pathological angiogenesis in mouse retina (amount of nucleus of vascular endothelial cells) ([2]; high concentration (2 μg/μl)): significantly inhibited | inhibition of pathological angiogenesis in mouse retina (amount of nucleus of vascular endothelial cells) ([2]; moderate concentration (1 μg/μl)): significantly inhibited | inhibition of proliferation of HUVECs (OD490) [3]: significantly inhibited | inhibition of migration of primary HUVECs (scratch width) [4]: significantly inhibited | inhibition of chemotaxis of HUVECs (number of cell nuclei on lower surface of chamber membrane) [5]: significant inhibition effect | inhibition of lumen formation of primary HUVECs (number of formed lumina) [6]: significant inhibition effect
